Data on 97 molecules can be found in ChEMBL document CHEMBL1821550 (Bioorg Med Chem Lett, 2011).

This series can be described thus: physchem. The following applies: octanol/water.

The term logD denotes the decadic logarithm of the distribution of all forms, ionised or not, between an organic phase and buffer at a given pH. Low readings indicate a more hydrophilic compound, high ones a more lipophilic compound. `COC(=O)N1CC(Oc2ccc(F)cc2)CC1C(=O)N1CCCN(C2CCC2)CC1` (configuration not stated): the logD turned out to be 1.8.
`COc1ccc2c(c1)OC(c1ccc(OCCCN3CCCC3)cc1)C(C)S2(=O)=O` (configuration not stated): the log distribution coefficient (logD) turned out to be 2.2.
With `c1ccc(-c2ccc(OCCCN3CCCCC3)cc2)cc1`, the logD was 2.9.
With `COc1cccc2c1S(=O)(=O)C(C)C(c1ccc(OCCCN3CCCC3)cc1)O2` (configuration not stated), the log distribution coefficient (logD) is 2.2.
Under `O=C(C1CC(Oc2cccc(F)c2)CN1)N1CCCN(C2CCC2)CC1` (configuration not stated) stands 0.2.
As to `Cn1c(-c2ccc(OC3CCN(C4CCC4)CC3)cc2)nc2c(C(F)(F)F)cccc2c1=O`, the logD was determined as 3.1.
Turning to `CN(C)C1CCC(c2ccc(OCCCN3CCCCC3)cc2)CC1` (configuration not stated), the log distribution coefficient (logD) was found to be 1.4.
With `Cc1c(-c2ccc3cc(CCN4CCC[C@H]4C)ccc3n2)cnn1-c1ccc(Cl)c(Cl)c1`, the logD came out at 5.4.
Turning to `c1cc(C2CCCCO2)ccc1OCCCN1CCCCC1` (configuration not stated), the logD is 2.1.
The molecule `Cc1nc(-c2ccncc2)sc1-c1ccc2cc(CCN3CCC[C@H]3C)ccc2n1` showed a logD of 3.5.
For the molecule `Cc1ccc(-c2ccc3cc(CCN4CCC[C@H]4C)ccc3n2)cn1`, the pH-dependent lipophilicity (logD) stood at 2.8.
In turn, `COc1ccc2c(=O)n(C)c(-c3ccc(OC4CCN(C5CCC5)CC4)cc3)nc2c1` had a log distribution coefficient (logD) of 2.2.
For `Cc1nc2cc(C(F)(F)F)ccc2c(=O)n1-c1ccc(OCCCN2CCCC2)cc1`, the logD was 2.6.
On to `Cc1cc2ncc(-c3ccc4cc(CCN5CCC[C@H]5C)ccc4n3)c(C)n2n1`, for which the pH-dependent lipophilicity (logD) is 2.5.
In turn, `O=c1c2ccccc2ncn1-c1ccc(OCCCN2CCCC2)cc1` had a logD of 1.6.
As to `C[C@@H]1CCCN1CCc1ccc2nc(-c3ccc(Cl)nc3)ccc2c1`, the log distribution coefficient (logD) worked out at 3.4.
As to `CCn1c(-c2ccc(OCCCN3CCCCC3)cc2)nc2ccccc2c1=O`, the log distribution coefficient (logD) is 2.6.
For the molecule `Cc1nc2ccc(F)cc2c(=O)n1-c1ccc(OCCCN2CCCC2)cc1`, the logD came to 1.9.
With `Cn1c(-c2ccc(OCCCN3CCCCC3)cc2)nc2ccccc2c1=O`, the logD worked out at 2.2.
In turn, `C[C@@H]1CCCN1CCc1ccc2nc(C3=NCCS3)ccc2c1` came in with a logD of 2.7.
In turn, `CC1COCC(C)N1S(=O)(=O)c1ccc(-c2ccc(CCN3CCC[C@H]3C)cc2)cc1` (some centres not stated) showed a logD of 2.6.
As for `C[C@@H]1CCCN1CCc1ccc2nc(-c3csc(-c4cc(Cl)nc(Cl)c4)n3)ccc2c1`, the pH-dependent lipophilicity (logD) turned out to be 5.
`C[C@@H]1CCCN1CCc1ccc(-c2ccc(S(=O)(=O)N3CCC(O)C3)cc2)cc1` (some centres not stated) yielded a log distribution coefficient (logD) of 1.5.
`COc1ccc(-c2cc3sc(N4CCC(N5CCCCC5)CC4)nc3cn2)cn1` had a pH-dependent lipophilicity (logD) of 1.6.
As to `C[C@@H]1CCCN1CCc1ccc2nc(-c3ccc(N4CCCCC4)cc3)ccc2c1`, the logD was 3.1.
Molecule `Fc1cc(-c2cc3sc(N4CCC(N5CCCCC5)CC4)nc3cn2)ccn1` registered a logD of 1.7.
Turning to `Cc1c(-c2ccc3cc(CCN4CCC[C@H]4C)ccc3n2)cnn1-c1ccc(N(C)C)nn1`, the log distribution coefficient (logD) came to 3.
For the molecule `Oc1ccc(-c2cc3sc(N4CCC(N5CCCCC5)CC4)nc3cn2)cn1`, the logD came out at 1.4.
On to `Cc1nc2c(C(F)(F)F)cccc2c(=O)n1-c1ccc(OCCCN2CCCC2)cc1`, for which the logD is 2.6.
On to `Fc1ccc(-c2cnc3nc(N4CCC(N5CCCCC5)CC4)sc3c2)cn1`, for which the logD is 1.5.
`C[C@@H]1CCCN1CCc1ccc2nc(-c3cn4c(n3)SCC4)ccc2c1`: the pH-dependent lipophilicity (logD) was found to be 3.1.
In the case of `C[C@@H]1CCCN1CCc1ccc2nc(-c3ccn4ncnc4n3)ccc2c1` it was 2.5; in that of `Cn1nccc1-c1ccc(OCCCN2CCCCC2)cc1`, 1.8; in that of `Fc1ncccc1-c1cc2sc(N3CCC(N4CCCCC4)CC3)nc2cn1`, 1.7.
As to `C[C@@H]1CCCN1CCc1ccc2nc(-c3ccn[nH]3)ccc2c1`, the logD amounted to 2.4.
Under `O=C(c1ccccc1-c1ccc(OCCCN2CCCCC2)cc1)N1CCCCC1` stands 3.2; under `O=c1c2ccccc2nc(-c2ccc(OCCCN3CCCCC3)cc2)n1Cc1ccccc1`, 3.8; under `CCOc1ccc(-n2ncc(-c3ccc4cc(CCN5CCC[C@H]5C)ccc4n3)c2C)nn1`, 3.8.
Molecule `O=c1c2ccccc2nc(-c2ccc(OCCCN3CCCCC3)cc2)n1-c1ccccc1` came in with a logD of 3.8.
`COc1cccc2c(=O)n(-c3ccc(OCCCN4CCCC4)cc3)c(C)nc12`: the logD was 1.7.
Consider `Cc1n[nH]c(C)c1-c1ccc2cc(CCN3CCC[C@H]3C)ccc2n1`, for which the logD came to 2.5.
`C[C@@H]1CCCN1CCc1ccc2nc(-c3cnccn3)ccc2c1` gave a pH-dependent lipophilicity (logD) of 1.8.
Under `COc1ccc2c(c1)S(=O)(=O)C(C)C(c1ccc(OCCCN3CCCC3)cc1)O2` (configuration not stated) stands 2.2.
For the molecule `C[C@@H]1CCCN1CCc1ccc2nc(-c3ccc(C#N)cc3)ccc2c1`, the logD worked out at 3.5.
In the case of `CC(C)N1CCN(C(=O)N2CCC(C(=O)OC(C)(C)C)CC2)CC1` it was 0.6.
In the case of `Cn1c(-c2ccc(OC3CCN(C4CCCC4)CC3)cc2)nc2ccccc2c1=O`, the logD came to 2.6.
`Fc1cc(-c2cnc3nc(N4CCC(N5CCCCC5)CC4)sc3c2)ccn1`: the log distribution coefficient (logD) amounted to 1.5.
With `C[C@@H]1CCCN1CCc1ccc2nc(-c3cn[nH]c3)ccc2c1`, the logD was found to be 2.1.
Molecule `Cc1ccc(-c2ccc(-c3ccc4cc(CCN5CCC[C@H]5C)ccc4n3)s2)s1` showed a log distribution coefficient (logD) of 5.5.
Regarding `Cc1nc(-c2cccnc2)sc1-c1ccc2cc(CCN3CCC[C@H]3C)ccc2n1`, the logD is 3.5.
`c1cc(N2CCCCC2)ccc1OCCCN1CCCCC1` gave a log distribution coefficient (logD) of 1.7.
`C[C@@H]1CCCN1CCc1ccc(-c2ccc(S(=O)(=O)NC3CCC3)cc2)cc1` came in with a logD of 2.9.
Molecule `c1cc(C2CCOCC2)ccc1OCCCN1CCCCC1` returned a logD of 1.8.
For `O=C(N1Cc2ccccc2C1)N1CCC[C@H]1CN1CCCC1`, the log distribution coefficient (logD) was 0.9.
In the case of `CC(C)N1CCN(C(=O)N2CCC(c3ccccc3)CC2)CC1` it was 1.6; in that of `COCCNS(=O)(=O)c1ccc(-c2ccc(CCN3CCC[C@H]3C)cc2)cc1`, 1.8; in that of `Cc1nc(-c2cccs2)sc1-c1ccc2cc(CCN3CCC[C@H]3C)ccc2n1`, 4.6.
`Cc1onc(-c2ccccc2)c1-c1ccc2cc(CCN3CCC[C@H]3C)ccc2n1` gave a logD of 4.2.
In the case of `c1ncc(-c2ccc(OCCCN3CCCCC3)cc2)o1` it was 1.1.
For `COc1ncc(-c2ccc3cc(CCN4CCC[C@H]4C)ccc3n2)cn1`, the logD stood at 2.4.
Regarding `Cn1c(-c2ccc(OC3CCN(C4CCC4)CC3)cc2)nc2ccccc2c1=O`, the logD was 2.2.
`Cc1cc(-c2nc(-c3ccc4cc(CCN5CCC[C@H]5C)ccc4n3)cs2)no1`: the logD turned out to be 3.5.
`C[C@@H]1CCCN1CCc1ccc2nc(-c3ccc4c(c3)COCO4)ccc2c1` yielded a logD of 3.2.
For the molecule `C[C@H]1Sc2ccccc2O[C@@H]1c1ccc(OCCCN2CCCC2)cc1`, the log distribution coefficient (logD) was determined as 3.3.
For the molecule `Cc1cc(C(F)(F)F)cc(-n2ncc(-c3ccc4cc(CCN5CCC[C@H]5C)ccc4n3)c2C)n1`, the pH-dependent lipophilicity (logD) was found to be 4.6.
As to `Cc1nc(C)c(-c2ccc3cc(CCN4CCCC4C)ccc3n2)cc1C#N` (configuration not stated), the logD amounted to 2.9.
`Cc1nc(C)c(-c2ccc3cc(CCN4CCCC4C)ccc3n2)cc1C(N)=O` (configuration not stated) came in with a pH-dependent lipophilicity (logD) of 2.1.
The molecule `C[C@H]1[C@H](c2ccc(OCCCN3CCCC3)cc2)Oc2ccccc2S1(=O)=O` showed a logD of 2.2.
The molecule `C[C@@H]1CCCN1CCc1ccc2nc(-c3csc(-c4ccc(OCC(F)(F)F)nc4)n3)ccc2c1` had a logD of 4.8.
As to `Cc1nc2ccccc2c(=O)n1-c1ccc(OCCCN2CCCC2)cc1`, the log distribution coefficient (logD) was found to be 1.7.
Consider `Cc1nc2ncccc2cc1-c1ccc2cc(CCN3CCC[C@H]3C)ccc2n1`, for which the log distribution coefficient (logD) came out at 3.1.
In the case of `C[C@@H]1CCCN1CCc1ccc2nc(-c3cncnc3)ccc2c1` it was 1.9; in that of `Cn1c(-c2ccc(OCCCN3CCCC3)cc2)nc2ccccc2c1=O`, 1.8; in that of `C[C@@H]1CCCN1CCc1ccc2ncccc2c1`, 1.7.
Under `CC(=O)Nc1ccc(-c2cnc3nc(N4CCC(N5CCCCC5)CC4)sc3c2)cn1` stands 0.6.
`O=C(N1CCN(C2CC2)CC1)N1Cc2ccccc2C1` displayed a log distribution coefficient (logD) of 0.1.
Turning to `Cc1onc(-c2ccc(Cl)cc2)c1-c1ccc2cc(CCN3CCC[C@H]3C)ccc2n1`, the pH-dependent lipophilicity (logD) stood at 4.9.
As to `O=C(C1CC(Oc2cccc(Cl)c2)CN1)N1CCCN(C2CCC2)CC1` (configuration not stated), the logD worked out at 0.6.
Take `COc1ccccc1-c1ccc(OCCCN2CCCCC2)cc1`: the log distribution coefficient (logD) is 2.9.
Molecule `CC(=O)Nc1ccc(-c2cc3sc(N4CCC(N5CCCCC5)CC4)nc3cn2)cn1` displayed a log distribution coefficient (logD) of 0.8.
For `CC(C)N1CCN(C(=O)N2CCC(NC(=O)C3CCCC3)CC2)CC1`, the pH-dependent lipophilicity (logD) was determined as 0.2.
Regarding `c1coc(-c2ccc(OCCCN3CCCCC3)cc2)c1`, the logD was found to be 2.3.
Under `Cc1nc2cccc(Cl)c2c(=O)n1-c1ccc(OCCCN2CCCC2)cc1` stands 2.4; under `C[C@@H]1CCCN1CCc1ccc2nc(-c3cccnc3)ccc2c1`, 2.5.
Molecule `CCCn1c(-c2ccc(OCCCN3CCCCC3)cc2)nc2ccccc2c1=O` came in with a logD of 3.1.
Take `CC1=C(c2ccc(OCCCN3CCCC3)cc2)Oc2ccccc2S1(=O)=O`: the logD was determined as 1.9.
As to `Cc1ccc2cc(CCN3CCC[C@H]3C)ccc2n1`, the logD was 2.
The molecule `C1=C(c2ccc(OCCCN3CCCCC3)cc2)CCC1` displayed a logD of 2.9.
In the case of `CC(C)N1CCN(C(=O)N2CC=C(c3ccccc3)CC2)CC1` it was 1.4.
Take `C[C@@H]1CCCN1CCc1ccc(-c2ccc(S(N)(=O)=O)cc2)cc1`: the logD came to 1.8.
Consider `COc1cccc2c1OC(c1ccc(OCCCN3CCC[C@H]3C)cc1)C(C)S2(=O)=O` (some centres not stated), for which the logD worked out at 2.6.
Under `C[C@@H]1CCCN1CCc1ccc(-c2ccc(S(=O)(=O)NC3CCOCC3)cc2)cc1` stands 1.8; under `Cc1nc(-c2ccccn2)sc1-c1ccc2cc(CCN3CCC[C@H]3C)ccc2n1`, 3.9.
Under `C[C@@H]1CCCN1CCc1ccc2nc(-c3ccncc3)ccc2c1` stands 2.5.
In turn, `C[C@@H]1CCCN1CCc1ccc(-c2ccc(S(=O)(=O)NCc3ccncc3)cc2)cc1` registered a logD of 2.4.
In the case of `COc1ccc2nc(-c3ccc(OC4CCN(C5CCC5)CC4)cc3)n(C)c(=O)c2c1` it was 2.2.
In turn, `CCOC(=N)c1ccc(-c2ccc3cc(CCN4CCC[C@H]4C)ccc3n2)s1` registered a logD of 4.1.
